In the PolyMetriX glass transition set:
± gives the standard deviation of the reports.

glass transition temperature	SMILES
159.00 °C	*Oc1ccc(-c2ccc(Oc3ccc(C(=O)c4cccc(C(=O)c5ccc(*)cc5)c4)cc3)cc2)cc1 (repeat unit)
78.00 °C	*Oc1ccc(Sc2ccc(OC3(F)C(*)(F)C(F)(F)C3(F)F)cc2)cc1 (repeat unit)
64.00 °C	*Oc1ccc(CC(NC(=O)CCc2ccc(OC(=O)COCC(*)=O)cc2)C(=O)OCCCC)cc1 (repeat unit)
46.00 °C	*C/C=C/COC(=O)C(Cc1ccccc1)NC(=O)CCCCCCCCC(=O)NC(Cc1ccccc1)C(=O)O* (repeat unit)
320.00 °C	*CC(O)CN(CC(O)COc1ccc(C(C)(C)c2ccc(O*)cc2)cc1)c1ccc(/C=C/c2ccc([N+](=O)[O-])cc2)cc1 (repeat unit)
123.00 °C	*CCCCC(=O)Oc1ccc(-c2ccc(OC(=O)c3ccc4c(c3)C(=O)N(*)C4=O)cc2)cc1 (repeat unit)
53.00 °C	*CC(*)(C)C(=O)OCCN(CCCC)c1ccc(/N=N/c2ccc(S(=O)(=O)Nc3nccs3)cc2)cc1 (repeat unit)
268.20 °C	*c1ccc(Oc2ccc(N3C(=O)c4ccc(C(c5ccc6c(c5)C(=O)N(c5ncc(*)s5)C6=O)(C(F)(F)F)C(F)(F)F)cc4C3=O)cc2)cc1 (repeat unit)
10.50 °C	*CCCCCCCCCCOC(=O)c1ccc(C(=O)O*)cc1 (repeat unit)
36.70 °C	*CC(*)C(=O)OCCCCOc1ccc(/N=N/c2ccc([N+](=O)[O-])cc2)cc1 (repeat unit)
235.00 °C	*C(=O)c1ccc2c(c1)C(=O)N(c1ccc(OCCOCCOc3ccc(N4C(=O)c5ccc(*)cc5C4=O)cc3)cc1)C2=O (repeat unit)
285.00 °C	*c1ccc(Oc2ccc(NC(=O)c3cc(C(=O)Nc4ccc(Oc5ccc(-c6nnc(*)o6)cc5)cc4)cc(N4C(=O)c5ccccc5C4=O)c3)cc2)cc1 (repeat unit)
413.00 °C	*c1ccc(Oc2ccc(N3C(=O)c4c(c(-c5ccccc5)c(-c5ccc(-c6c(-c7ccccc7)c7c(c(-c8ccccc8)c6-c6ccccc6)C(=O)N(*)C7=O)cc5)c(-c5ccccc5)c4-c4ccccc4)C3=O)cc2)cc1 (repeat unit)
236.00 °C	*c1ccc(Oc2ccc(-c3ccc(Oc4ccc(N5C(=O)c6ccc(Oc7ccc(C8(c9ccc(Oc%10ccc%11c(c%10)C(=O)N(*)C%11=O)cc9)CCC(C(C)(C)C)CC8)cc7)cc6C5=O)cc4)cc3C)c(C)c2)cc1 (repeat unit)
-63.40 °C	*O[Si](*)(CCCOCCOCCOC)CCCOCCOCCOC (repeat unit)
72.4 °C	*CC(*)(C)C(=O)OCCC[Si](O[Si](C)(C)C)(O[Si](C)(C)C)O[Si](C)(C)C (repeat unit)
205.00 °C	*c1ccc(Oc2ccc(C(c3ccc(Oc4ccc(-c5ncc(*)o5)cc4C(F)(F)F)cc3)(C(F)(F)F)C(F)(F)F)cc2)c(C(F)(F)F)c1 (repeat unit)
118.00 °C	*CCCCCC(=O)Oc1ccc(-c2ccc(OC(=O)c3ccc4c(c3)C(=O)N(*)C4=O)cc2)cc1 (repeat unit)
129.00 °C	*C(=O)OCCCCCOC(=O)c1ccc(NC(=O)c2ccc(N3C(=O)c4ccc(*)cc4C3=O)cc2)cc1 (repeat unit)

glass transition temperature	SMILES
197.00 °C	*Oc1ccc(N(c2ccc(OC)cc2)c2ccc3ccc(N(c4ccc(*)cc4)c4ccc(OC)cc4)cc3c2)cc1 (repeat unit)
213.50 °C	*c1ccc(C(=O)c2ccc(C(=O)c3ccc(S(*)(=O)=O)cc3)cc2)cc1 (repeat unit)
135.00 °C	*CCCC(C)(C)CCCn1c(=O)c2cc3c(=O)n(*)c(=O)c3cc2c1=O (repeat unit)
218.00 °C	*c1ccc(S(=O)(=O)c2ccc(-n3nccc3-c3cccc(-c4ccnn4*)c3)cc2)cc1 (repeat unit)
240.00 °C	*c1ccc(Oc2ccc(-c3nnc(*)o3)cc2)cc1 (repeat unit)
50.00 °C	*Oc1ccc(CC(NC(=O)CCc2ccc(OC(=O)CCCCCCC(*)=O)cc2)C(=O)OCC)cc1 (repeat unit)
179.00 °C	*Oc1cccc2cc(OC(=O)c3ccc(Oc4ccc(C(*)=O)cc4)cc3)ccc12 (repeat unit)
221.00 °C	*c1ccc(Oc2cccc(N3C(=O)c4ccc(Oc5ccc6ccc(Oc7ccc8c(c7)C(=O)N(*)C8=O)cc6c5)cc4C3=O)c2)cc1 (repeat unit)
125.00 °C	*c1ccc(C(=O)OCCCCCCOC(=O)c2ccc(-c3nnc(*)s3)cc2)cc1 (repeat unit)
125.00 °C	*Oc1ccc2cc(OC(=O)c3cccc(Oc4ccc(Oc5cccc(C(*)=O)c5)cc4)c3)ccc2c1 (repeat unit)
137.50 °C	*CC(O)COc1ccc(C(C)(C)c2ccc(OCC(O)COc3c(C)cc(S(=O)(=O)c4cc(C)c(O*)c(C)c4)cc3C)cc2)cc1 (repeat unit)
70.00 °C	*Oc1ccc(C(=O)OCCCCCCCOC(=O)c2ccc(OC(=O)c3ccc(C(*)=O)cc3)cc2)cc1 (repeat unit)
180.00 °C	*CC(*)(CC(=O)OC(C)C)C(=O)OC12CC3CC(CC(C3)C1)C2 (repeat unit)
103.00 °C	*CC(*)c1ccc(C(=O)c2ccc(OC)cc2)cc1 (repeat unit)
164.00 °C	*C1C(=O)N(c2cc(Br)c(O[Si](C)(C)C(C)(C)C)c(Br)c2)C(=O)C1* (repeat unit)
104.00 °C	*/C=C/c1ccc(/C=C/c2ccc3c(c2)C(CCCCCCOc2ccc4ccc(=O)oc4c2)(CCCCCCOc2ccc4ccc(=O)oc4c2)c2cc(*)ccc2-3)cc1 (repeat unit)
26.57 °C	*NC(CCC(=O)OCc1ccc(C(F)(F)F)cc1)C(*)=O (repeat unit)
37.00 °C	*CCOCCOCCOCCOC(=O)Nc1ccc(Cc2ccc(NC(=O)O*)cc2)cc1 (repeat unit)
245.00 °C	*C(=O)c1ccc(Oc2ccc(S(=O)(=O)c3ccc(Oc4ccc(C(=O)c5ccc6c(c5)C(=O)N(c5ccc(Cc7ccc(N8C(=O)c9ccc(*)cc9C8=O)cc7)cc5)C6=O)cc4)cc3)cc2)cc1 (repeat unit)

glass transition temperature	SMILES
175.00 °C	*Oc1ccc(/N=N/c2ccc(Oc3ccc(C(C)(C)c4ccc(*)cc4)cc3)cc2)cc1 (repeat unit)
1.00 °C	*CC(*)(C)C(=O)OCCC(C)CC(C)(C)C (repeat unit)
436.00 °C	*c1ccc(C(c2ccccc2)(c2ccc(-n3c(=O)c4cc5c(=O)n(*)c(=O)c5cc4c3=O)cc2)C(F)(F)F)cc1 (repeat unit)
37.50 °C	*CC(*)(C)C(=O)OCCN(CC)c1ccccc1 (repeat unit)
113.00 °C	*Oc1ccc(OC(=O)c2ccc(C(*)=O)cc2Oc2ccc(C3CCCCC3)cc2)cc1 (repeat unit)
217.00 °C	*Oc1ccc(C2(c3ccc(OC(*)=O)c(C)c3)CC3CC2C2CCCC32)cc1C (repeat unit)
225.00 °C	*Nc1ccc(C(c2ccc(NC(=O)c3cc(NC(=O)CCCCCN4C(=O)c5ccccc5C4=O)cc(C(*)=O)c3)cc2)(C(F)(F)F)C(F)(F)F)cc1 (repeat unit)
51.00 °C	*CC(*)(C)C(=O)OCCCCOc1ccc(OC(=O)c2ccc(OCCCC)cc2)cc1 (repeat unit)
-2.40 °C	*[O][Ca][O]C(=O)c1ccccc1C(=O)OCCCCCOC(=O)NCCCCCCNC(=O)OCCCCCOC(=O)c1ccccc1C(*)=O (repeat unit)
-60.50 °C	*C(=O)CCCCCCCCC(=O)N1CC(C)N(*)CC1C (repeat unit)
51.00 °C	*Oc1ccc(C(=O)OCCOCCOC(=O)c2ccc(OC(*)=O)cc2)cc1 (repeat unit)
291.00 °C	*c1cc(C(=O)NCCCC)cc(N2C(=O)c3ccc(-c4ccc5c(c4)C(=O)N(*)C5=O)cc3C2=O)c1 (repeat unit)
273.00 °C	*Nc1cccc(NC(=O)c2ccc(C(=O)Nc3ccc(C(=O)NC(*)=S)cc3)cc2)c1 (repeat unit)
210.00 °C	*/C(C#N)=C(\C#N)n1c(=O)c2cc3c(=O)n(*)c(=O)c3cc2c1=O (repeat unit)
34.00 °C	*CCCCCCCCCCCCOC(=O)NCCCCCCCCCCNC(=O)O* (repeat unit)
-40.00 °C	*CC(*)C(=O)OCCOCCOC(F)(F)C(F)F (repeat unit)
61.00 °C	*OC(=O)OCC(OC)C(COC(=O)OC1COC2C(*)COC12)OC (repeat unit)
128.00 °C	*C(=O)c1ccc2c(c1)C(=O)N(c1ccc(-c3ccc(N4C(=O)c5ccc(*)cc5C4=O)c(OCCCCCCOc4ccc(/C=C/c5ccc(F)cc5)cc4)c3)cc1OCCCCCCOc1ccc(/C=C/c3ccc(F)cc3)cc1)C2=O (repeat unit)
272.00 °C	*c1ccc(-c2cc(-c3ccc(-c4ccccc4)cc3)cc(-c3ccc(N4C(=O)c5ccc(NC(=O)Nc6ccc(-c7cc(-c8ccc(-c9ccccc9)cc8)cc(-c8ccc(NC(=O)Nc9ccc%10c(c9)C(=O)N(*)C%10=O)cc8)n7)cc6)cc5C4=O)cc3)n2)cc1 (repeat unit)

SMILES	glass transition temperature
*Oc1ccc(NC(=O)c2ccc(P(=O)(c3ccccc3)c3ccc(C(=O)Nc4ccc(Oc5ccc(P(=O)(c6ccccc6)c6ccc(*)cc6)cc5)cc4)cc3)cc2)cc1 (repeat unit)	225.00 °C
*C/C=C/C[Si](*)(C)C (repeat unit)	-57.50 °C
*Oc1ccc(C(C)(C)c2ccc(OC(=O)Nc3cccc(P(=O)(c4ccccc4)c4cccc(NC(*)=O)c4)c3)cc2)cc1 (repeat unit)	62.00 °C
*/C=C(/*)C(CCCCC)[Si](C)(C)C (repeat unit)	170.00 °C
*CC(*)c1ccc(Br)cc1 (repeat unit) [Poly(4-bromostyrene)]	140.4 ± 5.4 °C
*O[Si](C)(C)Oc1ccc(*)cc1 (repeat unit)	90.00 °C
*CC(*)C(=O)Oc1ccccc1C (repeat unit)	51.50 °C
*CC(*)(CC(=O)O)C(=O)O (repeat unit)	141.00 °C
*CC(*)(F)C(=O)OCC(F)(F)C(F)(F)F (repeat unit)	99.00 °C
